# Measurements reported in patent publication US10336730B2, “Substituted glycine derived FXIA inhibitors” (BRISTOL-MYERS SQUIBB COMPANY, priority 2015, dated 2019).
# Biological target: T1, purified human Factor XIa (Homo sapiens, UniProt P03951)
# T1 construct: purchased Haematologic Technologies
# Experiment: Factor XIa enzyme inhibition assay (chromogenic substrate S-2366), Ki
# Type: biochemical
# Settings: substrate S-2366, pH 7.4
# Summary of the method: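 Purified human Factor XIa ([…] final) with chromogenic substrate S-2366 (0.0002-0.001 M) in 50 mM HEPES pH 7.4, 145 mM NaCl, 5 mM KCl, 0.1% PEG 8000. Velocities measured over 20-180 minutes with and without inhibitor; Ki derived assuming competitive inhibition, e.g. Ki=IC50/(1+S/Km).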
# T1 sequence (P03951 388-625 limits assumed): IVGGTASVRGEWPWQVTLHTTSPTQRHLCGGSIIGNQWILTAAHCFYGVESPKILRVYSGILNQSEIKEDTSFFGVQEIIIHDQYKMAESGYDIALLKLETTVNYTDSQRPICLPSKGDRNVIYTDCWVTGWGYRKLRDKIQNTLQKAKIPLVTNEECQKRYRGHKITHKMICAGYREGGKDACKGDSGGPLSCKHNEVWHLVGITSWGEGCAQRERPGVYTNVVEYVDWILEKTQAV
# T1 sequence (P03951 19-387 partner limits assumed): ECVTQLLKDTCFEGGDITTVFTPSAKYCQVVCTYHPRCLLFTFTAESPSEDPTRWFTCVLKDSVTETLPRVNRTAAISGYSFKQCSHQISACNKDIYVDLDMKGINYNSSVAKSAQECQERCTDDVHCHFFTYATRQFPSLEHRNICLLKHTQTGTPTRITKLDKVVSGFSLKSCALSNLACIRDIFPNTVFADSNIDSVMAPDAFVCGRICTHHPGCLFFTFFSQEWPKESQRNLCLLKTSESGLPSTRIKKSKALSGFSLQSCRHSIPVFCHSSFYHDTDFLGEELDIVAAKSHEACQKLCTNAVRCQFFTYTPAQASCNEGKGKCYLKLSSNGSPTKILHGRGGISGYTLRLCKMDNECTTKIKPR
row,SMILES,Ki
1,"O=C([C@H](Cc1ccccc1)n1cnc(-c2cc(Cl)ccc2-n2cc(Cl)nn2)cc1=O)N1CCn2ncnc2C1 [Example 99, (S)-6-(5-chloro-2-(4-chloro-1H-1,2,3-triazol-1-yl)phenyl)-3-(1-(5,6-dihydro-[1,2,4]triazolo[1,5-a]pyrazin-7(8H)-yl)-1-oxo-3-phenylpropan-2-yl)pyrimidin-4(3H)-one]",7370 nM
2,"O=C(NCc1n[nH]c2c1CCCC2)[C@H](Cc1ccccc1)n1cnc(-c2cc(Cl)ccc2-n2cc(Cl)nn2)cc1=O [Example 91, (S)-2-(4-(5-chloro-2-(4-chloro-1H-1,2,3-triazol-1-yl)phenyl)-6-oxopyrimidin-1(6H)-yl)-3-phenyl-N-((4,5,6,7-tetrahydro-1H-indazol-3-yl)methyl)propanamide]",2850 nM
3,"NC(=O)c1ccc(NC(=O)[C@H](Cc2ccccc2)n2cnc(-c3cc(Cl)ccc3-n3cc(Cl)nn3)cc2=O)nc1 [Example 111, (S)-6-(2-(4-(5-chloro-2-(4-chloro-1H-1,2,3-triazol-1-yl)phenyl)-6-oxopyrimidin-1(6H)-yl)-3-phenylpropanamido)nicotinamide]",106 nM
4,"NC(=O)c1ccc(NC(=O)[C@H](Cc2ccccc2)n2cnc(-c3cc(Cl)ccc3-n3cc(Cl)nn3)cc2=O)cc1 [Example 118, (S)-4-(2-(4-(5-chloro-2-(4-chloro-1H-1,2,3-triazol-1-yl)phenyl)-6-oxopyrimidin-1(6H)-yl)-3-phenylpropanamido)benzamide]",33.3 nM
5,"CN1[C@@H]2CC[C@H]1C[C@@H](NC(=O)[C@H](Cc1ccccc1)n1cnc(-c3cc(Cl)ccc3-n3cc(Cl)nn3)cc1=O)C2 [Example 54, (S)-2-(4-(5-chloro-2-(4-chloro-1H-1,2,3-triazol-1-yl)phenyl)-6-oxopyrimidin-1(6H)-yl)-N-((1R,3r,5S)-8-methyl-8-azabicyclo[3.2.1]octan-3-yl)-3-phenylpropanamide]",3990 nM
6,"O=C(Nc1ncn(CC2CCCC2)n1)[C@H](Cc1ccccc1)n1cnc(-c2cc(Cl)ccc2-n2cc(Cl)nn2)cc1=O [Example 21, (S)-2-(4-(5-chloro-2-(4-chloro-1H-1,2,3-triazol-1-yl)phenyl)-6-oxopyrimidin-1(6H)-yl)-N-(1-(cyclopentylmethyl)-1H-1,2,4-triazol-3-yl)-3-phenylpropanamide]",553 nM
7,"O=C([C@H](Cc1ccccc1)n1cnc(-c2cc(Cl)ccc2-n2cc(Cl)nn2)cc1=O)N1CCC(Cc2ccccc2)CC1 [Example 72, (S)-3-(1-(4-benzylpiperidin-1-yl)-1-oxo-3-phenylpropan-2-yl)-6-(5-chloro-2-(4-chloro-1H-1,2,3-triazol-1-yl)phenyl)pyrimidin-4(3H)-one]",13300 nM
8,"Cn1cnc2cc(NC(=O)[C@H](Cc3ccccc3)n3cnc(-c4cc(Cl)ccc4-n4cc(Cl)nn4)cc3=O)cnc21 [Example 27, (S)-2-(4-(5-chloro-2-(4-chloro-1H-1,2,3-triazol-1-yl)phenyl)-6-oxopyrimidin-1(6H)-yl)-N-(3-methyl-3H-imidazo[4,5-b]pyridin-6-yl)-3-phenylpropanamide]",420 nM
9,"O=C(Nc1noc2cc(Br)ccc12)[C@H](Cc1ccccc1)n1cnc(-c2cc(Cl)ccc2-n2cc(Cl)nn2)cc1=O [Example 114, (S)-N-(6-bromobenzo[d]isoxazol-3-yl)-2-(4-(5-chloro-2-(4-chloro-1H-1,2,3-triazol-1-yl)phenyl)-6-oxopyrimidin-1(6H)-yl)-3-phenylpropanamide]",336 nM
10,"O=C(Nc1noc2ccccc12)[C@H](Cc1ccccc1)n1cnc(-c2cc(Cl)ccc2-n2cc(Cl)nn2)cc1=O [Example 121, (S)-N-(benzo[d]isoxazol-3-yl)-2-(4-(5-chloro-2-(4-chloro-1H-1,2,3-triazol-1-yl)phenyl)-6-oxopyrimidin-1(6H)-yl)-3-phenylpropanamide]",158 nM
11,"O=C(O)C[C@H]1CC[C@H](NC(=O)[C@H](Cc2ccccc2)n2cnc(-c3cc(Cl)ccc3-n3cc(Cl)nn3)cc2=O)CC1 [Example 108, 2-((1S,4r)-4-((S)-2-(4-(5-chloro-2-(4-chloro-1H-1,2,3-triazol-1-yl)phenyl)-6-oxopyrimidin-1(6H)-yl)-3-phenylpropanamido)cyclohexyl)acetic acid]",220 nM
12,"O=C(NCc1cccnc1)[C@H](Cc1ccccc1)n1cnc(-c2cc(Cl)ccc2-n2cc(Cl)nn2)cc1=O [Example 77, (S)-2-(4-(5-chloro-2-(4-chloro-1H-1,2,3-triazol-1-yl)phenyl)-6-oxopyrimidin-1(6H)-yl)-3-phenyl-N-(pyridin-3-ylmethyl)propanamide]",1450 nM
13,"O=C([C@H](Cc1ccccc1)n1cnc(-c2cc(Cl)ccc2-n2cc(Cl)nn2)cc1=O)N1CCC(O)CC1 [Example 81, (S)-6-(5-chloro-2-(4-chloro-1H-1,2,3-triazol-1-yl)phenyl)-3-(1-(4-hydroxypiperidin-1-yl)-1-oxo-3-phenylpropan-2-yl)pyrimidin-4(3H)-one]",4410 nM
14,"N#Cc1ccc(NC(=O)[C@H](Cc2ccccc2)n2cnc(-c3cc(Cl)ccc3-n3cc(Cl)nn3)cc2=O)cn1 [Example 43, (S)-2-(4-(5-chloro-2-(4-chloro-1H-1,2,3-triazol-1-yl)phenyl)-6-oxopyrimidin-1(6H)-yl)-N-(6-cyanopyridin-3-yl)-3-phenylpropanamide]",208 nM
15,"O=C(NCCc1cnccn1)[C@H](Cc1ccccc1)n1cnc(-c2cc(Cl)ccc2-n2cc(Cl)nn2)cc1=O [Example 100, (S)-2-(4-(5-chloro-2-(4-chloro-1H-1,2,3-triazol-1-yl)phenyl)-6-oxopyrimidin-1(6H)-yl)-3-phenyl-N-(2-(pyrazin-2-yl)ethyl)propanamide]",7050 nM
16,"CC(C)c1cc(CNC(=O)[C@H](Cc2ccccc2)n2cnc(-c3cc(Cl)ccc3-n3cc(Cl)nn3)cc2=O)on1 [Example 80, (S)-2-(4-(5-chloro-2-(4-chloro-1H-1,2,3-triazol-1-yl)phenyl)-6-oxopyrimidin-1(6H)-yl)-N-((3-isopropylisoxazol-5-yl)methyl)-3-phenylpropanamide]",3780 nM
17,"O=C(O)c1ccc(NC(=O)[C@H](Cc2ccccc2)N2CCC(c3cc(Cl)ccc3-n3ccnn3)=CC2=O)cc1 [Example 136, 4-[(2S)-2-{4-[5-chloro-2-(1H-1,2,3-triazol-1-yl)phenyl]-6-oxo-1,2,3,6-tetrahydropyridin-1-yl}-3-phenylpropanamido]benzoic Acid]",5.73 nM
18,"CN(C)Cc1nccn1-c1ccc(NC(=O)[C@H](Cc2ccccc2)n2cnc(-c3cc(Cl)ccc3-n3cc(Cl)nn3)cc2=O)c(F)c1 [Example 95, (S)-2-(4-(5-chloro-2-(4-chloro-1H-1,2,3-triazol-1-yl)phenyl)-6-oxopyrimidin-1(6H)-yl)-N-(4-(2-((dimethylamino)methyl)-1H-imidazol-1-yl)-2-fluorophenyl)-3-phenylpropanamide]",783 nM
19,"Nc1n[nH]c2ccc(NC(=O)[C@H](Cc3ccccc3)n3cnc(-c4cc(Cl)ccc4-n4cc(Cl)nn4)cc3=O)cc12 [Example 98, (S)-N-(3-amino-1H-indazol-5-yl)-2-(4-(5-chloro-2-(4-chloro-1H-1,2,3-triazol-1-yl)phenyl)-6-oxopyrimidin-1(6H)-yl)-3-phenylpropanamide]",554 nM
20,"O=C(Nc1cnn(-c2ccc(Cl)cc2)c1)[C@H](Cc1ccccc1)n1cnc(-c2cc(Cl)ccc2-n2cc(Cl)nn2)cc1=O [Example 119, (S)-2-(4-(5-chloro-2-(4-chloro-1H-1,2,3-triazol-1-yl)phenyl)-6-oxopyrimidin-1(6H)-yl)-N-(1-(4-chlorophenyl)-1H-pyrazol-4-yl)-3-phenylpropanamide]",408 nM
